{"source": "ChEMBL document CHEMBL1151138", "about": "“3'-prenyl-4'-methoxy-isoflavone-7-O-beta-D-(2''-O-p-coumaroyl) glucopyranoside, a novel phytoestrogen from Sopubia delphinifolia” (1990)", "key": {"Rattus norvegicus [1]": {"tested_on": "Rattus norvegicus", "assay": "Estrogenic activity in albino rat assessed as vaginal openings at 10 ug, po administered twice daily measured after 4 days relative to control", "assay_type": "functional, organism-based"}, "Rattus norvegicus [2]": {"tested_on": "Rattus norvegicus", "assay": "Estrogenic activity in albino rat assessed as uterus weight at 10 ug, po administered twice daily measured after 4 days", "assay_type": "functional"}, "Rattus norvegicus [3]": {"tested_on": "Rattus norvegicus", "assay": "Estrogenic activity in albino rat assessed as uterus weight at 50 ug, po administered twice daily measured after 4 days", "assay_type": "functional"}, "Rattus norvegicus [4]": {"tested_on": "Rattus norvegicus", "assay": "Estrogenic activity in albino rat assessed as vaginal openings at 50 ug, po administered twice daily measured after 4 days relative to control", "assay_type": "functional"}, "Rattus norvegicus [5]": {"tested_on": "Rattus norvegicus", "assay": "Estrogenic activity in albino rat assessed as uterus weight at 20 ug, po administered twice daily measured after 4 days", "assay_type": "functional"}}, "note": "Active and inactive are the calls of the source. The rule behind the calls is not given here.", "data": [{"molecule": "COc1ccc(-c2coc3cc(O[C@@H]4O[C@H](CO)[C@@H](O)[C@H](O)[C@H]4OC(=O)/C=C/c4ccc(O)cc4)ccc3c2=O)cc1CC=C(C)C", "values": [{"measurement": "Activity", "setting": "Rattus norvegicus [1]", "result": "inactive"}, {"measurement": "Activity", "setting": "Rattus norvegicus [2]", "result": 18, "unit": "%"}, {"measurement": "Activity", "setting": "Rattus norvegicus [3]", "result": 33.21, "unit": "%"}, {"measurement": "Activity", "setting": "Rattus norvegicus [4]", "result": 100, "unit": "%"}, {"measurement": "Activity", "setting": "Rattus norvegicus [5]", "result": 27.79, "unit": "%"}]}]}
